In general, IC50 refers to the point on the concentration scale where inhibition reaches its midpoint.

The text below walks through data of patent US20070287674A1, “New treatment of diabetes mellitus” (HEJ RESEARCH INSTITUTE OF CHEMISTRY, priority 2006, published 2007).

The structures appear in SMILES notation. Like-named read-outs stand apart in the source and are kept apart here.

The assay concerns the target α-glucosidase (E.C.3.2.1.20). Nature of the assay: α-Glucosidase enzyme inhibition assay (PNP-G substrate, spectrophotometric). The assay is classed as biochemical. As to the method:
α-Glucosidase (E.C.3.2.1.20) enzyme inhibition assay was performed according to the slightly modified method of Matsui et al. α-glucosidase (E.C.3.2.1.20) from Saccharomyces species, purchased from Wako Pure Chemical Industries Ltd. (Wako 076-02841). The enzyme inhibition was measured spectrophotometrically at pH 6.9 and at 37° C. using 0.7 mM p-nitrophenyl-α-D-glucopyranoside (PNP-G) as a substrate and 500 m units/mL enzyme, in 50 mM sodium phosphate buffer containing 100 mM NaCl. […] The increment in absorption at 400 nm, due to the hydrolysis of PNP-G by α-glucosidase, was monitored continuously on microplate spectrophotometer (Spectra Max Molecular Devices, USA).) [T. Matsui, C. Yoshimoto, K. Osajima, T. Oki, and Y. Osajima. Biosci. Biotech. Biochem., 1996, 60, 2019].

[1] abbreviates: in vitro, pH 6.9, 37° C., 0.7 mM PNP-G substrate, 500 m units/mL enzyme, read-out: IC50 ± SEM.
Where [2] appears, read: running text b24, unit inferred, read-out: IC50 (inhibitory effect on the enzyme).

Turning to `C[C@@]12CCC[C@@](C)(C(=O)O[C@@H]3O[C@H](CO)[C@@H](O)[C@H](O)[C@H]3O)[C@H]1CC[C@@]13C[C@@H](CC[C@H]12)[C@@](O)(CO)C3` (single isomer, unassigned; ent-1) [Compound 1, 16, β-17-hydroxy-ent-1-α-auzan 19-O-D-glucopyranosyl ester], the concentration for half-maximal inhibition (IC50) runs as follows: under setting [1], 407 ± 20 µM; under setting [2], 407 ± 20 µM.
`C[C@@]12CCC[C@@](C)(C(=O)O)[C@H]1CC[C@@]13C[C@@H](CC[C@H]12)[C@@](O)(CO)C3` (single isomer, unassigned; ent-16) [Compound 2, ent-16,17-dihydroxy-(−)-kauran-19-oic acid]: the IC50 under setting [1] was 62.2 µM and the IC50 under setting [2] was determined as 62.2 ± 0.008 µM.
